Laboratory results: paper PMC4111124, “Functional characterization of Candida albicans Hos2 histone deacetylase” (F1000Research, 2014)
pIC50: −log10 of the molar value.

Key:
[1] = target: T1, Hos2 histone deacetylase (Candida albicans, UniProt A0A1D8PJ17); experiment: fluorogenic deacetylase assay with Boc-Lys(Ac)-AMC, % inhibition at […]; format: biochemical; settings: read-out: % inhibition ± SE / 10 μM
T1 construct: full length, N-terminal hexa-histidine tag, expressed in Sf9 cells

[2] = target: T1, Hos2 histone deacetylase; experiment: biochemical

T1 sequence (A0A1D8PJ17 entry or part of it): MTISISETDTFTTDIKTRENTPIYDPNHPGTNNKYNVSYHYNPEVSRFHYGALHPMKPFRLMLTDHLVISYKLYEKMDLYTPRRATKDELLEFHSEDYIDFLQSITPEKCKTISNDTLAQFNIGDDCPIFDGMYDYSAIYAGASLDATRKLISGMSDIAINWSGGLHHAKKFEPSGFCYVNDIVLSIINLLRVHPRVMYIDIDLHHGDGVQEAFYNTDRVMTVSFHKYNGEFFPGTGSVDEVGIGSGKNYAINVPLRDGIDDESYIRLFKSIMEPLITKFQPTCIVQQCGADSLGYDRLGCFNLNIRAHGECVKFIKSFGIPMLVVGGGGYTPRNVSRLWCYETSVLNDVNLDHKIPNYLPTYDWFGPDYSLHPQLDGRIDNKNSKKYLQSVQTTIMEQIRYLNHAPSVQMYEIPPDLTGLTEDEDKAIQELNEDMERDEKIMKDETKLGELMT

With `Nc1ccccc1NC(=O)c1ccc(CNC(=O)OCc2cccnc2)cc1` [MS-275] the inhibition at 10 µM [1] was 56.3%.

In the case of `CC(/C=C/C(=O)NO)=C\[C@@H](C)C(=O)c1ccc(N(C)C)cc1` [TSA], the pIC50 [2] was 8.55.
